# Assay results as given in US12281079B2, “Quinoline derivatives, processes for their preparation and uses thereof for the treatment of cancer” (Lead Discovery Center GmbH, priority 2019, dated 2025).
# Molecular target: mitochondrial RNA polymerase (POLRMT) (Mus musculus, UniProt Q8BKF1)
# Assay: Homogeneous TR-FRET assay for mitochondrial transcription activity
# Assay type: biochemical
# Conditions: homogeneous TR-FRET assay according to Example 4
# Source text: The TR-FRET assay was basically conducted as described in WO2016/193231A1, especially as described in example 1 (hereby incorporated by reference). With respect to the back ground of the mitochondrial transcription it is referred to Falkenberg et al. (2002) and Posse et al. (Posse et al., 2015). The method monitors the activity of mitochondrial RNA-polymerase via detection of the formation of its product, a 407 bp long RNA sequence. Detection of the product is facilitated by hybridization of two DNA-oligonucleotide probes to specific and adjacent sequences within the RNA product sequence. Upon annealing of the probes, two fluorophores that are coupled directly to an acceptor nucleotide probe (ATT0647, 5′) or introduced via a coupled streptavidin interacting with a biotinylated donor nucleotide probe on the other side (Europium cryptate, 3′) are brought into sufficient proximity to serve as a fluorescence-donor-acceptor pair as generally described in Walters and Namchuk (2003). Thus, a FRET signal at 665 nm is generated upon excitation at 340 nm.
# Briefly, the protocol described here was applied for screening and activity determination in a low-volume 384-well microtiter plate with non-binding surface. For high-throughput application in the 1536-well microtiter plate format, volumes of the reagent mixes were adjusted, maintaining the volumetric ratio. Proteins POLRMT (NM_172551.3), TFAM (NM_009360.4) and TFB2M (NM_008249.4) were diluted from their stocks to working concentrations of 150 nM, 1.8 μM and 330 nM respectively, in a dilution buffer containing 100 mM Tris-HCl pH 8.0, 200 mM NaCl, 10% (v/v) glycerole, 2 mM glutathione (GSH), 0.5 mM EDTA and 0.1 mg/mL BSA. Protein dilutions and template DNA, comprising a pUC18 plasmid encoding the mitochondrial light strand promoter, restriction linearized proximal to the promoter 3′-end (pUC-LSP), were mixed at the twofold final assay-concentration in a reaction buffer, containing 10 mM Tris-HCl pH 7.5, 10 mM MgCl2, 40 mM NaCl, 2 mM GSH, 0.01% (w/v) Tween-20 and 0.1 mg/mL BSA.
# 5 μL of this mix were dispensed, depending on the chosen microtiter plate format, using multi-channel pipettes or a Multidrop® dispenser (Thermo Fisher Scientific, Waltham Mass.) into the wells of a microtiter plate and incubated at room temperature (rt) for 10 min. Chemical compounds under scrutiny in the assay were applied using contact-free acoustic droplet-dispensing (Echo520® Labcyte Inc., Sunnyvale Calif.) from 10 mM compound stocks in 100% DMSO, to a final concentration of 10 μM or in serial dilution series of the required concentration range. Equal amounts of DMSO without any compound were added to positive control samples, followed by an incubation step at rt for 10 min.
# The enzymatic reaction was started by the addition of 5 μL of a mix of dNTPs in reaction buffer to a final concentration of 500 μM each. No nucleotide mix was added to negative control samples. The content of the wells was mixed using a VarioTeleshaker™ (Thermo Fisher Scientific, Waltham Mass.) at 1500 rpm for 45 sec after which the microtiter plate was centrifuged at 500×g for 1 min. The samples were incubated for 2 h at rt with humidity control to avoid evaporation. The detection reagents were prepared in a buffer that was composed, such that the enzymatic reaction was terminated due to chelating of Mg-ions and increased ionic strength, containing 50 mM Tris-HCl pH 7.5, 700 mM NaCl, 20 mM EDTA, and 0.01% (w/v) Tween-20. Importantly Eu-cryptate-coupled streptavidin had to be preincubated with a 100-fold molar excess of a random sequence oligonucleotide for 10 min at rt in the dark to block unspecific binding of single stranded RNA to the protein. Subsequently, the blocked streptavidin(-Eu) was mixed with the DNA-probes on ice and kept away from light until use. […]
# Chain of mitochondrial RNA polymerase (POLRMT) (Q8BKF1 42-1207): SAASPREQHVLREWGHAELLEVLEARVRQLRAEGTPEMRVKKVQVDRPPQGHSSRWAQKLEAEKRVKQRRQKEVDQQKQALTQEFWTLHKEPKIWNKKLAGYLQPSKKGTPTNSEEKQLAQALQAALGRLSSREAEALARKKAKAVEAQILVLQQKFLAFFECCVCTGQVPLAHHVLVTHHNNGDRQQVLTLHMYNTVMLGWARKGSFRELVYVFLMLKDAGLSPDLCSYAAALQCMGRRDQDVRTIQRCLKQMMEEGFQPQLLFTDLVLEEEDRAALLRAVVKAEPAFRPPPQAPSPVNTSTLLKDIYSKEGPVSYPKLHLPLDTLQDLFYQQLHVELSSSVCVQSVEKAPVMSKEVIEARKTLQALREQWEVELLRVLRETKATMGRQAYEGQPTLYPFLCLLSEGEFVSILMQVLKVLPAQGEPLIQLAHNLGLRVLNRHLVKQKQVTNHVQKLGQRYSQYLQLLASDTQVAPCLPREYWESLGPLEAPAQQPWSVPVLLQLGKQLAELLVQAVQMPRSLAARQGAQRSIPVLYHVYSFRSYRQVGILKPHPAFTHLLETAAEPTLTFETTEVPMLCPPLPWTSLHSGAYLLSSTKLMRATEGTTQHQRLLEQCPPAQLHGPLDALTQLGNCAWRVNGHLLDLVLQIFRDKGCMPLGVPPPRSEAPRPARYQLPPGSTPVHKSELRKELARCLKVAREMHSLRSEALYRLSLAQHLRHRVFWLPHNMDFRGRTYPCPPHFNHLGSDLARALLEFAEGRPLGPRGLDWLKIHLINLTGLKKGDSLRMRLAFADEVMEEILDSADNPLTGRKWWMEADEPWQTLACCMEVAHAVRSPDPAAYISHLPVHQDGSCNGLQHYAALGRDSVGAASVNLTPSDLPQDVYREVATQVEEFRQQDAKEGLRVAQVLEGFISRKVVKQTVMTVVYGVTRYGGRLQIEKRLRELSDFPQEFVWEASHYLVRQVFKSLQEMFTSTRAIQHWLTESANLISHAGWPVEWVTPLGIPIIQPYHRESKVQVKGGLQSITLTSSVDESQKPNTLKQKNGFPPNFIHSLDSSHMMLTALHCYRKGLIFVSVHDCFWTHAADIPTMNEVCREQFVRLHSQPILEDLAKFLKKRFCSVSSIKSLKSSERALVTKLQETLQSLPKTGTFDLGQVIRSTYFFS
row,Compound,IC50
1,"CC(C)NC(=O)C(C)Oc1ccc2c(-c3ccc(F)cc3Cl)ccnc2n1 (racemic) [Compound 109, 2-[[5-(2-chloro-4-fluoro-phenyl)-1,8-naphthyridin-2-yl]oxy]-N-isopropyl-propanamide]",1000 to 10000 nM
2,"COC(=O)[C@@H]1CCCN(C(=O)[C@@H](C)Oc2ccc3c(-c4ccc(F)cc4Cl)ccnc3c2)C1 [Compound 71, methyl (3R)-1-[(2R)-2-[[4-(2-chloro-4-fluoro-phenyl)-7-quinolyl]oxy]propanoyl]piperidine-3-carboxylate]",100 to 1000 nM
3,"CCC(=O)N1CCN(C(=O)[C@@H](C)Oc2ccc3c(-c4ccccc4Cl)cc(Cl)nc3c2)CC1 [Compound 72, (2R)-2-[[2-chloro-4-(2-chlorophenyl)-7-quinolyl]oxy]-1-(4-propanoylpiperazin-1-yl)propan-1-one]",100 to 1000 nM
4,"CCOC(=O)[C@H]1CCN(C(=O)[C@@H](C)Oc2ccc3c(-c4ccc(F)cc4Cl)ccnc3c2)C1 [Compound 75, ethyl (3S)-1-[(2R)-2-[[4-(2-chloro-4-fluoro-phenyl)-7-quinolyl]oxy]propanoyl]pyrrolidine-3-carboxylate]",100 to 1000 nM
5,"CC(C)OC(=O)COc1ccc2c(-c3ccccc3Cl)ccnc2c1 [Compound 82, isopropyl 2-[[4-(2-chlorophenyl)-7-quinolyl]oxy]acetate]",1000 to 10000 nM
6,"C[C@@H](Oc1ccc2c(-c3ccccc3Cl)cc(Cl)nc2c1)C(=O)N1CCN(C(=O)CN)CC1 [Compound 85, (2R)-1-[4-(2-aminoacetyl)piperazin-1-yl]-2-[[2-chloro-4-(2-chlorophenyl)-7-quinolyl]oxy]propan-1-one]",1000 to 10000 nM
7,"CCOC(=O)[C@H]1CCCN(C(=O)COc2ccc3c(-c4ccccc4Cl)ccnc3c2)C1 [Compound 87, ethyl (3S)-1-[2-[[4-(2-chlorophenyl)-7-quinolyl]oxy]acetyl]piperidine-3-carboxylate]",1000 to 10000 nM
8,"CCOC(=O)C[C@@H]1CCCN(C(=O)[C@@H](C)Oc2ccc3c(-c4ccc(F)cc4Cl)ccnc3c2)C1 [Compound 89, ethyl 2-[(3S)-1-[(2R)-2-[[4-(2-chloro-4-fluoro-phenyl)-7-quinolyl]oxy]propanoyl]-3-piperidyl]acetate]",1000 to 10000 nM
9,"C[C@@H](Oc1ccc2c(-c3ccccc3Cl)cc(F)nc2c1)C(=O)O [Compound 90, (2R)-2-[[4-(2-chlorophenyl)-2-fluoro-7-quinolyl]oxy]propanoic acid]",1000 to 10000 nM
10,"C[C@@H](Oc1ccc2c(-c3ccc(F)cc3Cl)cc(Cl)nc2c1)C(=O)O [Compound 91, (2R)-2-[[2-chloro-4-(2-chloro-4-fluoro-phenyl)-7-quinolyl]oxy]propanoic acid]",1000 to 10000 nM
11,"CCOC(=O)C[C@H]1CCCN(C(=O)[C@@H](C)Oc2ccc3c(-c4ccccc4Cl)cc(Cl)nc3c2)C1 [Compound 92, ethyl 2-[(3R)-1-[(2R)-2-[[2-chloro-4-(2-chlorophenyl)-7-quinolyl]oxy]propanoyl]-3-piperidyl]acetate]",1000 to 10000 nM
12,"CCOC(=O)C[C@H]1CCCN(C(=O)[C@@H](C)Oc2ccc3c(-c4ccc(F)cc4Cl)cc(Cl)nc3c2)C1 [Compound 93, ethyl 2-[(3R)-1-[(2R)-2-[[2-chloro-4-(2-chloro-4-fluoro-phenyl)-7-quinolyl]oxy]propanoyl]-3-piperidyl]acetate]",1000 to 10000 nM
13,"CCOC(=O)[C@H]1CCCN(C(=O)[C@@H](C)Oc2ccc3c(-c4ccc(F)cc4C)cc(Cl)nc3c2)C1 [Compound 94, ethyl (3S)-1-[(2R)-2-[[2-chloro-4-(4-fluoro-2-methyl-phenyl)-7-quinolyl]oxy]propanoyl]piperidine-3-carboxylate]",1000 to 10000 nM
14,"CNC(=O)[C@H]1CCCN(C(=O)[C@@H](C)Oc2ccc3c(-c4ccccc4Cl)cc(Cl)nc3c2)C1 [Compound 96, (3S)-1-[(2R)-2-[[2-chloro-4-(2-chlorophenyl)-7-quinolyl]oxy]propanoyl]-N-methyl-piperidine-3-carboxamide]",1000 to 10000 nM

# Second part, the compound after the results:
row,IC50,Compound
1,20 to 100 nM,"CC(Oc1ccc2c(-c3ccccc3Cl)ccnc2c1)C(=O)N1CCC[C@H](C(=O)O)C1 (mixture of isomers) [Compound 23, rac-(3S)-1-[2-[[4-(2-chlorophenyl)-7-quinolyl]oxy]propanoyl]piperidine-3-carboxylic acid]"
2,20 to 100 nM,"CCC(Oc1ccc2c(-c3ccccc3Cl)ccnc2c1)C(=O)N1CCC[C@H](CC(=O)O)C1 (mixture of isomers) [Compound 140, 2-[rac-(3R)-1-[2-[[4-(2-chlorophenyl)-7-quinolyl]oxy]butanoyl]-3-piperidyl]acetic acid]"
3,< 20 nM,"Cc1cccc(C)c1-c1ccnc2cc(O[C@H](C)C(=O)N3CCCC(CS(N)(=O)=O)C3)ccc12 (mixture of isomers) [Compound 190, [1-[rac-(2R)-2-[[4-(2,6-dimethylphenyl)-7-quinolyl]oxy]propanoyl]-3-piperidyl]methanesulfonamide]"
4,< 20 nM,"CCOC(=O)C[C@H]1CCCN(C(=O)[C@@H](C)Oc2ccc3c(-c4c(C)cccc4C)ccnc3c2)C1 [Compound 6, ethyl 2-[(3R)-1-[(2R)-2-[[4-(2,6-dimethylphenyl)-7-quinolyl]oxy]propanoyl]-3-piperidyl]acetate]"
5,100 to 1000 nM,"COC(=O)C[C@H]1CCN(C(=O)[C@@H](C)Oc2ccc3c(-c4ccc(F)cc4Cl)ccnc3c2)C1 [Compound 37, methyl 2-[(3R)-1-[(2R)-2-[[4-(2-chloro-4-fluoro-phenyl)-7-quinolyl]oxy]propanoyl]pyrrolidin-3-yl]acetate]"
6,100 to 1000 nM,"Cc1ccccc1-c1cc(Cl)nc2cc(O[C@H](C)C(=O)O)ccc12 [Compound 43, (2R)-2-[[2-chloro-4-(o-tolyl)-7-quinolyl]oxy]propanoic acid]"
7,100 to 1000 nM,"C[C@@H](Oc1ccc2c(-c3ccc(F)cc3Cl)ccnc2c1)C(=O)O [Compound 44, (R)-2-((4-(2-chloro-4-fluorophenyl)quinolin-7 yl)oxy)propanoic acid]"
8,100 to 1000 nM,"CCOC(=O)c1ccc(NC(=O)[C@@H](C)Oc2ccc3c(-c4ccc(F)cc4Cl)ccnc3c2)cc1 [Compound 51, ethyl 4-[[(2R)-2-[[4-(2-chloro-4-fluoro-phenyl)-7-quinolyl]oxy]propanoyl]amino]benzoate]"
9,100 to 1000 nM,"COC(=O)C1CC(NC(=O)[C@@H](C)Oc2ccc3c(-c4ccc(F)cc4Cl)ccnc3c2)C1 (stereo partly drawn) [Compound 54, methyl 3-[[(2R)-2-[[4-(2-chloro-4-fluoro-phenyl)-7-quinolyl]oxy]propanoyl]amino]cyclobutanecarboxylate]"
10,100 to 1000 nM,"CCOC(=O)C1CCN(C(=O)[C@@H](C)Oc2ccc3c(-c4ccc(F)cc4Cl)ccnc3c2)CC1 [Compound 58, ethyl 1-[(2R)-2-[[4-(2-chloro-4-fluoro-phenyl)-7-quinolyl]oxy]propanoyl]piperidine-4-carboxylate]"
11,20 to 100 nM,"C[C@@H](Oc1ccc2c(-c3cccc(F)c3Cl)ccnc2c1)C(=O)N1CCC[C@H](CC(=O)O)C1 [Compound 65, 2-[(3R)-1-[(2R)-2-[[4-(2-chloro-3-fluoro-phenyl)-7-quinolyl]oxy]propanoyl]-3-piperidyl]acetic acid]"
12,100 to 1000 nM,"COC(=O)C[C@@H]1CCN(C(=O)[C@@H](C)Oc2ccc3c(-c4ccc(F)cc4Cl)ccnc3c2)C1 [Compound 67, methyl 2-[(3S)-1-[(2R)-2-[[4-(2-chloro-4-fluoro-phenyl)-7-quinolyl]oxy]propanoyl]pyrrolidin-3-yl]acetate]"
13,< 20 nM,"Cc1cc(F)cc(C)c1-c1ccnc2cc(O[C@H](C)C(=O)N3CCC[C@H](C(=O)O)C3)ccc12 [Compound 84, (3S)-1-[(2R)-2-[[4-(4-fluoro-2,6-dimethyl-phenyl)-7-quinolyl]oxy]propanoyl]piperidine-3-carboxylic acid]"
